Laboratory results taken from patent US20230086702A1, “SUBSTITUTED 2-AMINO-PYRAZOLYL-[1,2,4]TRIAZOLO[1,5A]PYRIDINE DERIVATIVES AND USE THEREOF” (The Johns Hopkins University, priority 2019, published 2023).

What was measured:
[1] = biological target: T1, DLK (Homo sapiens, UniProt Q12852); experiment: DLK biochemical assay (TR-FRET, MKK7 phosphorylation)
T1 construct: 10 nM DLK, catalytic domain, Carna Biosiences; purchased Carna Biosciences ('Carna Biosiences' [sic])
T1 sequence (Q12852 125-366 limits assumed): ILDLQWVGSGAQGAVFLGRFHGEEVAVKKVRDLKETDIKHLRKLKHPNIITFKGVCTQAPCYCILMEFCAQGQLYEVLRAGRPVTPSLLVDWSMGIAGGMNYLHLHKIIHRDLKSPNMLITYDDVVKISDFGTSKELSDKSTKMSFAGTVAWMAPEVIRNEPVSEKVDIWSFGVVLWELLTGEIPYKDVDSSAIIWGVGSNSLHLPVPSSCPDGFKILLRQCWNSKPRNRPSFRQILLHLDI
Protocol: (§1) DLK assay is a biochemical assay format designed to screen for inhibitors of DLK. Enzymatic activity of DLK is measured by monitoring phosphorylation of the physiological substrate MKK7 (MAP2K7, Dual specificity mitogen-activated protein kinase kinase 7). Phosphorylation is detected by a TR-FRET system whereby His-tagged MKK7 is labeled by a XL665-labeled anti-His antibody (FRET acceptor, emission 665 nm). DLK phosphorylates MKK7 at T275/S277, which is detected by an Eu-labeled anti-phospho-MKK7 (T275/S277) antibody (FRET donor, excitation 340 nm). Phosphorylation of MKK7 results in an increased TR-FRET signal (Ratio XL665-channel/Eu-channel) and inhibition of enzymatic activity of DLK decreases the TR-FRET signal.
Assay Protocol for 1536 MTP format: test compounds are predispensed (60 nl) in test plates; +3 μl DLK solution (10 nM DLK, catalytic domain, Carna Biosiences, 0.6 mM DTT in assay buffer); +2 μl substrate solution (15 nM MKK7, LDB; 60 μM ATP; 0.4 mM DTT in assay buffer); 90 min incubation at RT; +2 μl detection mix (5 nM XL665-labeled anti-His antibody, Cisbio; 0.1 nM Eu-labeled anti-phospho-MKK7 (T275/S277), Cisbio/Millipore in detection buffer); 16 h incubation at 37° C.; endpoint measurement BMG (HTRF).
(§2) Assay Protocol for 384 low volume MTP format: 1 μl of test compounds is pipetted into test plate; +5 μl DLK solution (10 nM DLK, catalytic domain, Carna Biosiences in assay buffer); +5 μl substrate solution (15 nM MKK7, LDB; 60 μM ATP, in assay buffer); 90 min incubation at RT; +9 μl detection mix (20 nM XL665-labeled anti-His antibody, Cisbio; 0.4 nM Eu-labeled anti-phospho-MKK7 (T275/S277), Cisbio/Millipore in detection buffer); 16 h incubation at 4° C.; endpoint measurement BMG (HTRF).
(§3) All indicated concentrations final concentrations.
(§4) Assay buffer (384 format): 50 mM Hepes pH 7.5, 10 mM MgCl2, 1 mM EGTA, 1 mM DTT, 0.01% Triton X-100, 0.01% BSA, 1:500 Smart Block.
(§5) Detection buffer: 25 mM Tris/HCl pH 7.5, 100 mM EDTA, 100 mM NaCl, 200 mM KF, 0.01% Tween 20, 1:500 Smart Block.

[2] = biological target: T2, LZK (Homo sapiens, UniProt O43283); experiment: LZK biochemical assay (TR-FRET, MKK7 phosphorylation)
T2 construct: 10 nM LZK, catalytic domain, Carna Biosiences in assay buffer; purchased Carna Biosciences ('Carna Biosiences' [sic])
T2 sequence (O43283 168-409 limits assumed): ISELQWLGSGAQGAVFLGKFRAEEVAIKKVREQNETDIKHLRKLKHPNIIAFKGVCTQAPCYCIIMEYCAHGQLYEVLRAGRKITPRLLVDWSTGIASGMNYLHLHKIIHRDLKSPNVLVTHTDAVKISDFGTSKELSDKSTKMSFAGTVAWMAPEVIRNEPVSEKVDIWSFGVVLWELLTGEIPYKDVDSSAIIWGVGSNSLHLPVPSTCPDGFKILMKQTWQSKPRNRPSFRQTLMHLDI
Protocol: as §1, with “LZK” for “DLK”, “LZK.” for “DLK.”, “T275/S277” for “T275/S277,”
as §2, with “compound” for “compounds”, “LZK” for “DLK”, “LZK,” for “DLK,”, “15” for “60”, “+5” for “+9”, “32°” for “4°”
as §3, §4, §5

Row | Structure (SMILES) | IC50 [1] [nM] | IC50 [2] [nM]
1 | CCC(c1ccc(N2CCOCC2)cc1)n1cc(-c2cc(-c3cnn(CC(F)(F)F)c3)c3nc(N)nn3c2)cn1 (racemic) [II-102, 6-(1-{1-[4-(Morpholin-4-yl)phenyl]propyl}-1H-pyrazol-4-yl)-8-[1-(2,2,2-trifluoroethyl)-1H-pyrazol-4-yl][1,2,4]triazolo[1,5-a]pyridin-2-amine] | 5.7 | 140
2 | CCC(c1ccc(C(F)F)nc1)n1cc(-c2cc(-c3cnn(CC(F)(F)F)c3)c3nc(N)nn3c2)cn1 (racemic) [II-105, 6-(1-{1-[6-(Difluoromethyl)pyridin-3-yl]propyl}-1H-pyrazol-4-yl)-8-[1-(2,2,2-trifluoroethyl)-1H-pyrazol-4-yl][1,2,4]triazolo[1,5-a]pyridin-2-amine] | 9.4 | 42
3 | CCC(c1ccc(C(F)(F)F)nc1)n1cc(-c2cc(-c3cnn(CC(F)F)c3)c3nc(N)nn3c2)cn1 (racemic) [II-108, 8-[1-(2,2-Difluoroethyl)-1H-pyrazol-4-yl]-6-(1-{1-[6-(trifluoromethyl)pyridin-3-yl]propyl}-1H-pyrazol-4-yl)[1,2,4]triazolo[1,5-a]pyridin-2-amine] | 6.3 | 37
4 | CCC(c1ccc(C(F)(F)F)nc1)n1cc(-c2cc(-c3cnn(CC(F)(F)F)c3)c3nc(N)nn3c2)cn1 (racemic) [II-111, 8-[1-(2,2,2-trifluoroethyl)-1H-pyrazol-4-yl]-6-(1-{1-[6-(trifluoromethyl)pyridin-3-yl]propyl}-1H-pyrazol-4-yl)[1,2,4]triazolo[1,5-a]pyridin-2-amine] | 14 | 34
5 | CCC(c1ccc(OC(F)(F)F)nc1)n1cc(-c2cc(-c3cnn(CC(F)(F)F)c3)n3nc(N)nc3c2)cn1 (racemic) [II-114, 5-[1-(2,2,2-Trifluoroethyl)-1H-pyrazol-4-yl]-7-(1-{1-[6-(trifluoromethoxy)pyridin-3-yl]propyl}-1H-pyrazol-4-yl)[1,2,4]triazolo[1,5-a]pyridin-2-amine] | 46 | 42
6 | Nc1nc2c(-c3cnn(CC(F)(F)F)c3)cc(-c3cnn(C(c4ccc(C(F)(F)F)nc4)C4CCOCC4)c3)cn2n1 (racemic) [II-117, 6-(1-{Tetrahydro-2H-pyran-4-yl[6-(trifluoromethyl)pyridin-3-yl]methyl}-1H-pyrazol-4-yl)-8-[1-(2,2,2-trifluoroethyl)-1H-pyrazol-4-yl][1,2,4]triazolo[1,5-a]pyridin-2-amine] | 3.8 | 29
7 | CCC(c1ccc(C(F)(F)F)nc1)n1cc(-c2cc(-c3cc(CO)ccc3Cl)c3nc(N)nn3c2)cn1 (single isomer, unassigned) [II-2, {3-[2-Amino-6-(1-{1-[6-(trifluoromethyl)pyridin-3-yl]propyl}-1H-pyrazol-4-yl)[1,2,4]triazolo[1,5-a]pyridin-8-yl]-4-chlorophenyl}methanol] | 170 | 30
8 | CCC(c1ccc(C(F)(F)F)nc1)n1cc(-c2cc(-c3cc(CO)ccc3Cl)c3nc(N)nn3c2)cn1 (single isomer, unassigned) [II-3, {3-[2-Amino-6-(1-{1-[6-(trifluoromethyl)pyridin-3-yl]propyl}-1H-pyrazol-4-yl)[1,2,4]triazolo[1,5-a]pyridin-8-yl]-4-chlorophenyl}methanol] | 12 | 6.4
9 | Nc1nc2c(-c3cc(CO)ccc3Cl)cc(-c3cnn(C(c4ccc(C(F)(F)F)nc4)C4CCOCC4)c3)cn2n1 (single isomer, unassigned) [II-6, {3-[2-Amino-6-(1-{tetrahydro-2H-pyran-4-yl[6-(trifluoromethyl)pyridin-3-yl]methyl}-1H-pyrazol-4-yl)[1,2,4]triazolo[1,5-a]pyridin-8-yl]-4-chlorophenyl}methanol] | 46 | 6.7

Continued by falling IC50 [1], values first:

Row | IC50 [1] [nM] | IC50 [2] [nM] | Structure (SMILES)
10 | 3.7 | 7.9 | CCC(c1ccc(C(F)(F)F)nc1)n1cc(-c2cc(-c3cccc(C(C)(C)O)c3)c3nc(N)nn3c2)cn1 (single isomer, unassigned) [II-8, 2-{3-[2-Amino-6-(1-{1-[6-(trifluoromethyl)pyridin-3-yl]propyl}-1H-pyrazol-4-yl)[1,2,4]triazolo[1,5-a]pyridin-8-yl]phenyl}propan-2-ol]
11 | 3.6 | 17 | Nc1nc2cc(-c3cnn(C(c4ccc(C(F)(F)F)nc4)C4CCOCC4)c3)cc(-c3cn(CC(F)(F)F)c(=O)cn3)n2n1 (racemic) [II-194, 5-[2-Amino-7-(1-{tetrahydro-2H-pyran-4-yl[6-(trifluoromethyl)pyridin-3-yl]methyl}-1H-pyrazol-4-yl)[1,2,4]triazolo[1,5-a]pyridin-5-yl]-1-(2,2,2-trifluoroethyl)pyrazin-2(1H)-one]
12 | 2.3 | 1.7 | Nc1nc2c(-c3cc(CO)ccc3Cl)cc(-c3cnn(C(c4ccc(C(F)(F)F)nc4)C4CCOCC4)c3)cn2n1 (single isomer, unassigned) [II-5, {3-[2-Amino-6-(1-{tetrahydro-2H-pyran-4-yl[6-(trifluoromethyl)pyridin-3-yl]methyl}-1H-pyrazol-4-yl)[1,2,4]triazolo[1,5-a]pyridin-8-yl]-4-chlorophenyl}methanol]
13 | 1.4 | 3 | CC(C)(O)c1cccc(-c2cc(-c3cnn(C(c4ccc(C(F)(F)F)nc4)C4CCOCC4)c3)cn3nc(N)nc23)c1 (single isomer, unassigned) [II-11, 2-{3-[2-Amino-6-(1-{tetrahydro-2H-pyran-4-yl[6-(trifluoromethyl)pyridin-3-yl]methyl}-1H-pyrazol-4-yl)[1,2,4]triazolo[1,5-a]pyridin-8-yl]phenyl}propan-2-ol]
14 | 1 | 2.3 | CCC(c1ccc(C(F)(F)F)nc1)n1cc(-c2cc(-c3cccc(C(C)(C)O)c3)c3nc(N)nn3c2)cn1 (single isomer, unassigned) [II-9, 2-{3-[2-Amino-6-(1-{1-[6-(trifluoromethyl)pyridin-3-yl]propyl}-1H-pyrazol-4-yl)[1,2,4]triazolo[1,5-a]pyridin-8-yl]phenyl}propan-2-ol]
15 | 0.6 | 1.2 | CC(C)(O)c1cccc(-c2cc(-c3cnn(C(c4ccc(C(F)(F)F)nc4)C4CCOCC4)c3)cn3nc(N)nc23)c1 (single isomer, unassigned) [II-12, 2-{3-[2-Amino-6-(1-{tetrahydro-2H-pyran-4-yl[6-(trifluoromethyl)pyridin-3-yl]methyl}-1H-pyrazol-4-yl)[1,2,4]triazolo[1,5-a]pyridin-8-yl]phenyl}propan-2-ol]
